Assay [1] concerns the target T1, LMO2 (LIM only protein 2) (Homo sapiens, UniProt P25791).
T1 construct: tandem LIM-domain construct of LMO2 fused to the LDB1^LID (FLINC2); with LDB1 LID (fused)
T1 sequence (P25791 30-153 limits assumed): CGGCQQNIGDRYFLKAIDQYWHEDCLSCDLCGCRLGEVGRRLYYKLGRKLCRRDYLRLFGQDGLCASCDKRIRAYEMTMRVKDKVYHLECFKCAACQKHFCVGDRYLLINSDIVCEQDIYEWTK
T1 sequence (Q86U70 336-375 partner limits assumed): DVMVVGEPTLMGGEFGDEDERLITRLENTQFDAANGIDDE
Put plainly: microscale thermophoresis (NT647-labelled protein); supported by STD-NMR, SAXS and HTRF PPI inhibition (IC50 […]). It is filed as binding. (In general: Microscale thermophoresis detects binding through changes in fluorescence in a small temperature gradient.)

Assay [2] deals with SCL/E2A complex (Homo sapiens) (UniProt P17542). Put plainly: given as Ka. The settings on record: cited from earlier work.
SCL/E2A complex (Homo sapiens), sequence (P17542 whole entry, chain 1 of 2): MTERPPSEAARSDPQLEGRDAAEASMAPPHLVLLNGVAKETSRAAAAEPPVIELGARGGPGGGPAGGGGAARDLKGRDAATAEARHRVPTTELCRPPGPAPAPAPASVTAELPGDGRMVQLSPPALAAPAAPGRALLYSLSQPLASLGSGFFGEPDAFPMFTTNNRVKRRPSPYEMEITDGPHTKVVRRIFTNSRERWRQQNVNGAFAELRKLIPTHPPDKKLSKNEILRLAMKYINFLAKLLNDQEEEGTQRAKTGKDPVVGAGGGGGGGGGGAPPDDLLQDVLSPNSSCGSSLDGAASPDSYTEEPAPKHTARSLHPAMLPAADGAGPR
SCL/E2A complex (Homo sapiens), sequence (P15923 whole entry, chain 2 of 2, further chain): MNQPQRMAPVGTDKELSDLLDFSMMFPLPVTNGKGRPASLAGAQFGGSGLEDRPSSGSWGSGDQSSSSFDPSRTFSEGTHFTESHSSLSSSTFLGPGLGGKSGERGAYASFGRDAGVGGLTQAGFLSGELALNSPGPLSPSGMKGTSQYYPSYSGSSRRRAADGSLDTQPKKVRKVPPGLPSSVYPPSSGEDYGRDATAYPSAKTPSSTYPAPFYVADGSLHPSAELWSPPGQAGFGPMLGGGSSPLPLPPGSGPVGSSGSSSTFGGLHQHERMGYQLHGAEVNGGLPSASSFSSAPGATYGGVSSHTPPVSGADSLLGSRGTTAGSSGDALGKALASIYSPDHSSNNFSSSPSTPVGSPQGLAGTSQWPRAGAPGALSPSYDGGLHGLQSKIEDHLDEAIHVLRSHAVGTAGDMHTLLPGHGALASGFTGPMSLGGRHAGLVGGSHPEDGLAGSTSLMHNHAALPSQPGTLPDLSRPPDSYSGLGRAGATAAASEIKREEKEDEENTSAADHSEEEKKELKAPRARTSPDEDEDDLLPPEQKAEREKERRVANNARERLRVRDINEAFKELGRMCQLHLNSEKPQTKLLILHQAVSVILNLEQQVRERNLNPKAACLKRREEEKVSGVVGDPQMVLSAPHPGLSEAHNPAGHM

LMO2, sequence (P25791 whole entry, the tested form may be a part): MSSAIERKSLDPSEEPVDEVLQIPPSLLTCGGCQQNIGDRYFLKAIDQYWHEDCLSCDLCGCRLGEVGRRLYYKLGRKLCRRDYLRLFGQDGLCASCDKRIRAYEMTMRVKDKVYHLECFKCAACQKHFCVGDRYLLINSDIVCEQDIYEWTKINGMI

Take `Cc1cc(C)cc(C2(C(=O)N3CCOCC(Cc4ccc5nccn5c4)C3)CCOCC2)c1` (centres unmarked) [3K7]: in assay [1], the Kd came to 1200 nM.
For the compound LMO2 (from UniProt P25791), the Kd in assay [2] is 5.56 nM.

Broadly, the Kd is the equilibrium constant for the complex coming apart.

The values are drawn from publication PMC7233811, “Small molecule inhibits T-cell acute lymphoblastic leukaemia oncogenic interaction through conformational modulation of LMO2” (Oncotarget, 2020).
